Measurements published in article PMC6769532 (International Journal of Molecular Sciences, 2019).
Each block holds one molecule with its values, some of them ahead of it.

Legend:
[1] = biological target: T1, Riboflavin transporter 2 (RFVT2) (Homo sapiens, UniProt Q9HAB3); assay: inhibition of [3H]riboflavin uptake in proteoliposomes with purified recombinant RFVT2, dose-response; format: biochemical
T1 construct: gene SLC52A2; hRFVT2 carrying an N-terminal 6-Histidine tag
T1 sequence (Q9HAB3 1-445): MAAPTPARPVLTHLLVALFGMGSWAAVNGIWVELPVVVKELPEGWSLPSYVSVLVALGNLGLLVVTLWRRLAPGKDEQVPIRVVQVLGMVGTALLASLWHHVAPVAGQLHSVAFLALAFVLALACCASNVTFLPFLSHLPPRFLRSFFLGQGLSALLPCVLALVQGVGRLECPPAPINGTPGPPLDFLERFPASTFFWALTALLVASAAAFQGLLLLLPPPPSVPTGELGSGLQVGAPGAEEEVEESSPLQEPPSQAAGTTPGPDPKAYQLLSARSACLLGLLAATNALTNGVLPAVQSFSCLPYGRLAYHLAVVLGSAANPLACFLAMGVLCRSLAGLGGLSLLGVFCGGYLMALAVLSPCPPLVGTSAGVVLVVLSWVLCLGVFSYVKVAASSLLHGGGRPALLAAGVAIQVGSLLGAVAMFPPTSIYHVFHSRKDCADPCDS

[2] = substrate: Cc1cc2nc3c(=O)[nH]c(=O)nc-3n(C[C@H](O)[C@H](O)[C@H](O)CO)c2cc1C; assay: purified protein

IC50 [1]: 3.3 ± 0.8 µM
Molecule: Cc1cc2nc3c(=O)[nH]c(=O)nc-3n(C[C@H](O)[C@H](O)[C@H](O)COP(=O)(O)O)c2cc1C [FMN]

B1: Riboflavin transporter 2 (RFVT2) (Homo sapiens) (protein)
chain: T1 sequence (Q9HAB3 1-445)
Km [2]: 0.26 ± 0.07 µM
